Test results reported in ChEMBL document CHEMBL2331163, “Enhancement of the water solubility of flavone glycosides by disruption of molecular planarity of the aglycone moiety” (J Nat Prod, 2013).
In brackets after ≈: the same amount, converted by molar mass.

How the values were obtained:
[1] = Aqueous solubility of the compound in water after 2 days by HPLC analysis; assay type: physicochemical
[2] = Lipophilicity, log P of the compound; assay type: physicochemical; settings: octanol/water

Row | Compound | solubility at 48 h [1] | logP [2]
1 | C[C@@H]1O[C@@H](O[C@H]2[C@H](Oc3cc(O)c4c(=O)c(Br)c(-c5ccc(O)cc5)oc4c3)O[C@H](CO)[C@@H](O)[C@@H]2O)[C@H](O)[C@H](O)[C@H]1O | > 100 mg/mL | 0.93
2 | COc1ccc(-c2oc3cc(O[C@@H]4O[C@H](CO[C@@H]5O[C@@H](C)[C@H](O)[C@@H](O)[C@H]5O)[C@@H](O)[C@H](O)[C@H]4O)cc(O)c3c(=O)c2O)cc1O | 0.0056 mg/mL (≈ 0.00897 mM) | 0.06
3 | COc1ccc(-c2oc3cc(O[C@@H]4O[C@H](CO[C@@H]5O[C@@H](C)[C@H](O)[C@@H](O)[C@H]5O)[C@@H](O)[C@H](O)[C@H]4O)cc(O)c3c(=O)c2Cl)cc1O | 231 mg/mL (≈ 359 mM) | 0.44
4 | COc1ccc(-c2oc3cc(O[C@@H]4O[C@H](CO[C@@H]5O[C@@H](C)[C@H](O)[C@@H](O)[C@H]5O)[C@@H](O)[C@H](O)[C@H]4O)cc(O)c3c(=O)c2Br)cc1O | 214 mg/mL (≈ 311 mM) | 0.61
5 | C[C@@H]1O[C@@H](O[C@H]2[C@H](Oc3cc(O)c4c(=O)cc(-c5ccc(O)cc5)oc4c3)O[C@H](CO)[C@@H](O)[C@@H]2O)[C@H](O)[C@H](O)[C@H]1O [RHOIFOLIN] | 0.114 mg/mL (≈ 0.197 mM) | 0.71

Further lines, results first:

Row | solubility at 48 h [1] | logP [2] | Compound
6 | 13.8 mg/mL (≈ 20.6 mM) | 1.17 | COc1ccc(-c2oc3cc(O[C@@H]4O[C@H](CO[C@@H]5O[C@@H](C)[C@H](O)[C@@H](O)[C@H]5O)[C@@H](O)[C@H](O)[C@H]4O)cc(O)c3c(=O)c2Br)cc1
7 | 0.0046 mg/mL (≈ 0.00776 mM) | 0.84 | COc1ccc(-c2cc(=O)c3c(O)cc(O[C@@H]4O[C@H](CO[C@@H]5O[C@@H](C)[C@H](O)[C@@H](O)[C@H]5O)[C@@H](O)[C@H](O)[C@H]4O)cc3o2)cc1 [ACACIIN]
